Here are results for three molecules from ChEMBL document CHEMBL3639213, “2,5-disubstituted piperidine orexin receptor antagonists” (2014).

This assay deals with T1, Orexin/Hypocretin receptor type 1 (Rattus norvegicus, UniProt P56718).
T1 sequence (P56718 whole entry): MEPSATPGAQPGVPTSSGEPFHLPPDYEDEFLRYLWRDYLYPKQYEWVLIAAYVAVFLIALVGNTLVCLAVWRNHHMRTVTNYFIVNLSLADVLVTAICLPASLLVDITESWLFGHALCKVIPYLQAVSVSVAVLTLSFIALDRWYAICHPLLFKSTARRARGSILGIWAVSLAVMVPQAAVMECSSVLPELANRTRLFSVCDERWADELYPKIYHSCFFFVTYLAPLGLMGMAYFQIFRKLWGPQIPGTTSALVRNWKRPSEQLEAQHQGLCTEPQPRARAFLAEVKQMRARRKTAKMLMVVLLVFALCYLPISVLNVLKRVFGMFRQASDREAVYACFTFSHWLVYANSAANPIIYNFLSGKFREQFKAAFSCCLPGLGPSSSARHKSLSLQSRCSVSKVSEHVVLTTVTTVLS
Description: Radioligand Binding Assay: Compound potency can be assessed by a radioligand binding assay (described in Bergman et. al. Bioorg. Med. Chem. Lett. 2008, 18, 1425-1430) in which the inhibition constant (Ki) is determined in membranes prepared from CHO cells expressing either the orexin-1 (OX1) or orexin-2 (OX2) receptor. Type of assay: cell membranes.
As a reminder, the Ki is a dissociation constant, usually derived from enzyme kinetics or from competition with a known ligand. Low values mean a stronger hold on the target, high ones a looser hold on the target. Take `Cc1ccc(-n2nccn2)c(C(=O)N2C[C@H](Nc3nccc4ccccc34)CC[C@H]2C)c1`: the inhibitory constant (Ki) worked out at 3.25 nM.
In turn, `C[C@@H]1CC[C@@H](Oc2ccnc3c(F)cccc23)CN1C(=O)c1ccccc1-n1nccn1` came in with a Ki of 560 nM.
`C[C@@H]1CC[C@@H](Oc2cccc3ocnc23)CN1C(=O)c1ccccc1-n1nccn1` yielded a Ki of 1300 nM.
